This is an account of results in PubChem BioAssay (NCI).

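How tested: cells in 96-well plates exposed to compound for 48 hours at five concentrations. TGI: concentration producing complete growth inhibition.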 Some results are limits rather than exact numbers.

Test systems include ACHN renal; CAKI-1 renal; COLO 205 colon; HCT-15 colon; HOP-62 NSCLC; HOP-92 NSCLC; IGROV1 ovarian; KM20L2 colon; LOX IMVI melanoma; MALME-3M melanoma; MOLT-4 leukemia; NCI-H23 lung; NCI-H460 lung; OVCAR-3 ovarian; OVCAR-5 ovarian; RXF 393 renal; SK-MEL-5 melanoma.
Holding throughout (experiment): NCI-60 cell line screen, 48 h

As to `COc1ccc(NC(=O)C(=O)Cc2ccc([N+](=O)[O-])c([N+](=O)[O-])c2CC(=O)C(=O)Nc2ccc(OC)cc2OC)c(OC)c1`, the TGI in the assay with ACHN renal, in the assay on CAKI-1 renal, with COLO 205 colon, with HCT-15 colon, with HOP-62 NSCLC and with HOP-92 NSCLC was above 100 µM each time. Moreover, the TGI in the assay on IGROV1 ovarian, with KM20L2 colon, in the assay with LOX IMVI melanoma, in the assay on MALME-3M melanoma, with MOLT-4 leukemia and in the assay with NCI-H23 lung was above 100 µM in each case. The TGI in the assay with NCI-H460 lung, in the assay on OVCAR-3 ovarian, in the assay with OVCAR-5 ovarian and with RXF 393 renal was above 100 µM throughout.

As to `O=C1Nc2ccc(Cl)c(I)c2C1=O`, the TGI in the assay on ACHN renal was 30.7 µM; in the assay with CAKI-1 renal, 37.9 µM; in the assay on COLO 205 colon it was 35.1 µM; in the assay on HCT-15 colon it was 43.7 µM; in the assay on HOP-62 NSCLC it was 34.8 µM; in the assay with IGROV1 ovarian, 30.9 µM. The TGI in the assay on KM20L2 colon was 34.9 µM; in the assay on LOX IMVI melanoma, 35.1 µM; in the assay with MALME-3M melanoma, 34.8 µM; in the assay with MOLT-4 leukemia it was 54.6 µM; in the assay with NCI-H23 lung, 37.6 µM; with NCI-H460 lung, 39.7 µM. In addition, the TGI with OVCAR-3 ovarian was found to be 52.3 µM; with OVCAR-5 ovarian, 34.1 µM; in the assay on RXF 393 renal it was 29.8 µM; in the assay with SK-MEL-5 melanoma, 34.9 µM.

With `CCCCCCCCCCCCCS(=O)(=O)NCC(N)=O`, the TGI in the assay on ACHN renal, in the assay with COLO 205 colon, in the assay with HCT-15 colon, in the assay on HOP-62 NSCLC, in the assay with HOP-92 NSCLC and in the assay with IGROV1 ovarian was above 100 µM throughout. Further, the TGI in the assay on KM20L2 colon, with LOX IMVI melanoma, with MALME-3M melanoma, in the assay on NCI-H23 lung, with NCI-H460 lung and with OVCAR-3 ovarian was above 100 µM each time. For the same compound, the TGI in the assay on OVCAR-5 ovarian, with RXF 393 renal and with SK-MEL-5 melanoma was above 100 µM in each case.

Consider `Brc1ccc(-c2cc3c(cc2C2SCCS2)OCO3)cc1`, for which the TGI in the assay on ACHN renal, in the assay on COLO 205 colon, with HCT-15 colon, in the assay with HOP-62 NSCLC, with IGROV1 ovarian and with KM20L2 colon was above 100 µM in each case. For the same compound, the TGI in the assay on LOX IMVI melanoma was above 100 µM; in the assay on MALME-3M melanoma, above 100 µM; in the assay with MOLT-4 leukemia it was above 100 µM; in the assay with NCI-H23 lung it was above 100 µM; with NCI-H460 lung, above 100 µM; with OVCAR-3 ovarian it was 75.9 µM. The TGI with OVCAR-5 ovarian was above 100 µM; with RXF 393 renal, 77.2 µM; with SK-MEL-5 melanoma, above 100 µM.

For `CCCCOC(=O)NC(=O)c1cn(CCCOC(=O)CCCCCCCCC(=O)OCCCn2cc(C(=O)NC(=O)OCCCC)c(=O)n(C)c2=O)c(=O)n(C)c1=O`, the TGI in the assay on ACHN renal, in the assay on CAKI-1 renal, in the assay with COLO 205 colon, in the assay on HCT-15 colon, with HOP-62 NSCLC and with HOP-92 NSCLC was above 100 µM throughout. Moreover, the TGI in the assay with IGROV1 ovarian, in the assay with KM20L2 colon, in the assay with MALME-3M melanoma, in the assay with MOLT-4 leukemia, in the assay with NCI-H23 lung and in the assay with NCI-H460 lung was above 100 µM throughout. The TGI with OVCAR-3 ovarian, with OVCAR-5 ovarian, in the assay on RXF 393 renal and in the assay on SK-MEL-5 melanoma was above 100 µM in each case.

Take `Cc1ccc(Nc2nc(-c3ccc(-c4ccc([N+](=O)[O-])cc4)o3)cs2)cc1`: the TGI in the assay with ACHN renal, with CAKI-1 renal, in the assay with COLO 205 colon, in the assay on HCT-15 colon, in the assay with HOP-62 NSCLC and with HOP-92 NSCLC was above 100 µM in each case. In addition, the TGI with IGROV1 ovarian was above 100 µM; in the assay with KM20L2 colon, above 100 µM; in the assay with LOX IMVI melanoma, above 100 µM; in the assay with MALME-3M melanoma, above 100 µM; in the assay on MOLT-4 leukemia, above 100 µM; with NCI-H23 lung, 94.5 µM. Further, the TGI with NCI-H460 lung, in the assay with OVCAR-3 ovarian and in the assay with OVCAR-5 ovarian was above 100 µM each time.

For the compound `COc1ccc([C@H]2CC3C(=O)N(c4ccc(OC)cc4)C(=O)C3c3[nH]c4ccccc4c32)cc1` (some centres not stated), the TGI in the assay on ACHN renal is above 100 µM; in the assay on CAKI-1 renal it was above 100 µM; in the assay with COLO 205 colon, above 100 µM; in the assay on HCT-15 colon, above 100 µM; with HOP-62 NSCLC, above 100 µM; in the assay on HOP-92 NSCLC, 78.4 µM. In addition, the TGI in the assay on IGROV1 ovarian, with KM20L2 colon, in the assay on LOX IMVI melanoma, in the assay with MALME-3M melanoma, in the assay with MOLT-4 leukemia and with NCI-H23 lung was above 100 µM in each case. The TGI in the assay on NCI-H460 lung, in the assay with OVCAR-3 ovarian, in the assay on OVCAR-5 ovarian and in the assay on SK-MEL-5 melanoma was above 100 µM in each case.

As to `Cc1nn2c(c1C#N)NNc1c-2sc(=N)nnc1=O`, the TGI in the assay on CAKI-1 renal, in the assay with COLO 205 colon, in the assay with HOP-62 NSCLC, in the assay on HOP-92 NSCLC, with IGROV1 ovarian and in the assay with KM20L2 colon was above 100 µM throughout. Moreover, the TGI in the assay on MALME-3M melanoma, in the assay on MOLT-4 leukemia, in the assay on NCI-H23 lung, in the assay with OVCAR-3 ovarian, in the assay on OVCAR-5 ovarian and in the assay on RXF 393 renal was above 100 µM throughout. This compound displayed a TGI with SK-MEL-5 melanoma above 100 µM.

As to `CC#COS(=O)(=O)c1ccc(C)cc1`, the TGI in the assay with ACHN renal, with CAKI-1 renal, in the assay with COLO 205 colon, in the assay with HCT-15 colon, in the assay on HOP-62 NSCLC and in the assay with IGROV1 ovarian was above 100 µM each time. Moreover, the TGI with KM20L2 colon, with LOX IMVI melanoma, with MALME-3M melanoma, with MOLT-4 leukemia, in the assay on NCI-H23 lung and with NCI-H460 lung was above 100 µM throughout. The TGI in the assay on OVCAR-3 ovarian, in the assay on OVCAR-5 ovarian and in the assay with SK-MEL-5 melanoma was above 100 µM throughout.
